The solubility is the dissolved amount per volume that the medium holds. A lower solubility goes with a poorly soluble substance. The IC50 is the concentration that gives 50% inhibition. Lower therefore signals greater potency in that assay. As a reminder, the EC50 is the concentration at which the effect is half-maximal.

Values joined by “and” are separate entries in the source; they are usually repeats but may differ in a detail not shown here. Equal values may be shown once. Where a name gives a salt, the structure may show the parent alone.

The source of these data is patent US8822460B2, “Fused cyclopentyl antagonists of CCR2” (Janssen Pharmaceutica, NV, priority 2012, dated 2014).

Series [1] in a line: Moisture sorption/desorption analysis. Type of series: physicochemical. Conditions: for total hygroscopic weight increase (uptake): up to 90% RH. On the procedure: The crystalline phosphate, sulfate and maleate salts of the compound of formula (I-S) were additional tested in DSC, TGA and moisture sorption/desorption. […] The moisture sorption analysis was performed using Hiden Isochema system Model IGAsorp. The sample (˜5 mg) was run in a stainless-steel mesh crucible. […] The moisture profile consisted of 2 cycles of vapor adsorption/desorption.

A further series is described as follows: Solution solubility. Conditions: thermodynamic from solid.
The target of a further series is CCR2 (Homo sapiens (Human), UniProt P41597). Description: MCP-1 Receptor Binding Assay in THP-1 Cells. Conditions: stated as 'believed to have', approximate ('about'). How it is done:
Human monocytic cell line THP-1 cells were obtained from American Type Culture Collection (Manassas, Va., USA). […] The cell density was maintained […].
1 μM cold MCP-1 was used for nonspecific binding.

In the next series the test system is hCCR2KI mice. The experiment in a line: animal or person. Type of series: in vivo, mouse.
Series [2] has as its system high-fat diet induced obese mice. Description: High-Fat Diet Induced Obesity and Insulin Resistance in Mice.

Chain of CCR2 (P41597 whole entry): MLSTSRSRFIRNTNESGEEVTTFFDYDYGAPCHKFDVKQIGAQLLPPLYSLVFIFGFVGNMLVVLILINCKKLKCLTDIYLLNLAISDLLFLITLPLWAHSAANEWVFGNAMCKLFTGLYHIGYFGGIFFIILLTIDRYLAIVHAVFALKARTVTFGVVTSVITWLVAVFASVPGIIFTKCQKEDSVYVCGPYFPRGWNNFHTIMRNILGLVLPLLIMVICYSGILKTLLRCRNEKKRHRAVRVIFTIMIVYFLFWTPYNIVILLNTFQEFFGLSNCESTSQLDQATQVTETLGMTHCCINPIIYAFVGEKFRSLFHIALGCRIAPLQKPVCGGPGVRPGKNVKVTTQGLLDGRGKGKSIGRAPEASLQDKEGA

Consider `CO[C@@H]1COCC[C@@H]1N[C@@H]1C[C@H]2OCC[C@@]2(C(=O)N2CCc3ncc(C(F)(F)F)cc3C2)C1.O=C(O)CCC(=O)O` [((3aS,5S,6aR)-5-(((3S,4S)-3-methoxytetrahydro-2H-pyran-4-yl)amino)hexahydro-2H-cyclopenta[b]furan-3a-yl)(3-(trifluoromethyl)-7,8-dihydro-1,6-naphthyridin-6(5H)-yl)methanone], for which the “moisture retained at the end of the desorption phase” value in series [1] (multiple sorption/desorption cycles, 25° C.) is given as “about 2.7%”. In series [1] (up to 70% RH), the hygroscopic weight increase is 3.8%. In series [1], the “total hygroscopic weight increase (uptake)” value came to 70%. In addition, the solubility in “Solution solubility” (0.1N NaOH, aqueous buffer) is more than 100 mg/mL; in “Solution solubility” (0.5% methocel, aqueous with cosolvent or surfactant or cyclodextrin), more than 100 mg/mL; in the series “Solution solubility” (20% HpbCD, aqueous with cosolvent or surfactant or cyclodextrin), more than 100 mg/mL; in “Solution solubility” (borate buffer, pH 8, aqueous buffer) it was more than 100 mg/mL; in the series “Solution solubility” (borate buffer, pH 10, aqueous buffer) it was more than 100 mg/mL; in “Solution solubility” (citrate buffer, pH 2, aqueous buffer), more than 100 mg/mL. For the same molecule, the solubility was more than 100 mg/mL in the series “Solution solubility” (citrate buffer, pH 4, aqueous buffer); more than 100 mg/mL in the series “Solution solubility” (citrate buffer, pH 6, aqueous buffer); more than 100 mg/mL in “Solution solubility” (simulated gastric fluid); more than 100 mg/mL in “Solution solubility” (simulated intestinal fluid, fassgf or other biorelevant); more than 50 mg/mL in the series “Solution solubility” (water).
As to `COC1COCCC1N[C@@H]1C[C@H]2OC(CC(C)C)C[C@@]2(C(=O)N2CCc3ncc(C(F)(F)F)cc3C2)C1` (stereo partly drawn) [Example 14, ((3aS,5S,6aR)-2-isobutyl-5-((3-methoxytetrahydro-2H-pyran-4-yl)amino)hexahydro-2H-cyclopenta[b]furan-3a-yl)(3-(trifluoromethyl)-7,8-dihydro-1,6-naphthyridin-6(5H)-yl)methanone], on CCR2, the IC50 lay within 50 to 100 nM.
Still for that read-out and setting: the result for `COC1COCCC1N[C@@H]1C[C@H]2OC(C3CCCCC3)C[C@@]2(C(=O)N2CCc3ncc(C(F)(F)F)cc3C2)C1` (stereo partly drawn) [Example 15, ((3aS,5S,6aR)-2-cyclohexyl-5-((3-methoxytetrahydro-2H-pyran-4-yl)amino)hexahydro-2H-cyclopenta[b]furan-3a-yl)(3-(trifluoromethyl)-7,8-dihydro-1,6-naphthyridin-6(5H)-yl)methanone] reads less than 50 nM; that for `COC1COCCC1N[C@@H]1C[C@H]2OC(c3ccnn3C)C[C@@]2(C(=O)N2CCc3ncc(C(F)(F)F)cc3C2)C1` (stereo partly drawn) [Example 17, ((3aS,5S,6aR)-5-((3-methoxytetrahydro-2H-pyran-4-yl)amino)-2-(1-methyl-1H-pyrazol-5-yl)hexahydro-2H-cyclopenta[b]furan-3a-yl)(3-(trifluoromethyl)-7,8-dihydro-1,6-naphthyridin-6(5H)-yl)methanone], 100 to 200 nM.
Same read-out and setting: as for `COC1COCCC1N[C@@H]1C[C@H]2OC(c3nccn3C)C[C@@]2(C(=O)N2CCc3ncc(C(F)(F)F)cc3C2)C1` (stereo partly drawn) [Example 18, ((3 aS,5S,6aR)-5-((3-methoxytetrahydro-2H-pyran-4-yl)amino)-2-(1-methyl-1H-imidazol-2-yl)hexahydro-2H-cyclopenta[b]furan-3a-yl)(3-(trifluoromethyl)-7,8-dihydro-1,6-naphthyridin-6(5H)-yl)methanone], the figure is more than 200 nM.
On the same count and under the same terms, as for `CO[C@@H]1COCC[C@@H]1N[C@@H]1C[C@H]2OCC[C@@]2(C(=O)N2CCN(c3cccc(C(F)(F)F)n3)CC2)C1` [Example 24, ((3 aS,5S,6aR)-5-(((3S,4S)-3-methoxytetrahydro-2H-pyran-4-yl)amino)hexahydro-2H-cyclopenta[b]furan-3a-yl)(4-(6-(trifluoromethyl)pyridin-2-yl)piperazin-1-yl)methanone], the figure is more than 200 nM; as for `CO[C@@H]1COCC[C@@H]1N[C@@H]1C[C@H]2OCC[C@@]2(C(=O)N2CCN(c3ccnc(C(F)(F)F)n3)CC2)C1` [Example 28, ((3aS,5S,6aR)-5-(((3S,4S)-3-methoxytetrahydro-2H-pyran-4-yl)amino)hexahydro-2H-cyclopenta[b]furan-3a-yl)(4-(2-(trifluoromethyl)pyrimidin-4-yl)piperazin-1-yl)methanone], more than 200 nM.
For `CO[C@@H]1COCC[C@@H]1N[C@@H]1C[C@H]2OCC[C@@]2(C(=O)N2CCc3ncc(C(F)(F)F)cc3C2)C1.O=C(O)CCC(=O)O` [Example 30, ((3aS,5S,6aR)-5-((3S,4S)-3-methoxytetrahydro-2H-pyran-4-ylamino)hexahydro-2H-cyclopenta[b]furan-3a-yl)(3-(trifluoromethyl)-7,8-dihydro-1,6-naphthyridin-6(5H)-yl)methanone succinate], the EC50 in the series on hCCR2KI mice (Mus musculus, 0.5 h, read-out: cmax EC50 in plasma) stood at 97 nM. Moreover, the “inhibition of thioglycollate induced cellular infiltrate” value with hCCR2KI mice (mouse, in vivo, succinate) was 51% and 67% and 95%. Also, the “reduction of high fat-diet induced body weight” value in series [2] (1 mg/kg p.o. bid, after 32-days treatment (p>0.05)) is reported as 4.94%; in series [2] (3 mg/kg p.o. bid, after 32-days treatment (p<0.01)), 10.94%; in series [2] (10 mg/kg p.o. bid, after 32-days treatment (p<0.01)), 15.7%.
`COc1cccc(C2CCN([C@@H]3C[C@H]4OCC[C@@]4(C(=O)N4CCc5ncc(C(F)(F)F)cc5C4)C3)CC2)c1` [Example 33, ((3aS,5S,6aR)-5-(4-(3-methoxyphenyl)piperidin-1-yl)hexahydro-2H-cyclopenta[b]furan-3a-yl)(3-(trifluoromethyl)-7,8-dihydro-1,6-naphthyridin-6(5H)-yl)methanone] returned an IC50 at CCR2 of less than 50 nM.
On the same count and under the same terms, as for `O=C(N1COc2ccc(C(F)(F)F)cc2C1)[C@@]12CCO[C@@H]1C[C@@H](N1CCC(c3ccccc3)CC1)C2` [Example 38, ((3aS,5S,6aR)-5-(4-phenylpiperidin-1-yl)hexahydro-2H-cyclopenta[b]furan-3a-yl)(6-(trifluoromethyl)-2H-benzo[e][1,3]oxazin-3(4H)-yl)methanone], the figure is 100 to 200 nM.
Same read-out and setting: as for `CN(C)C(=O)c1cccc(C2CCN([C@@H]3C[C@H]4OCC[C@@]4(C(=O)N4COc5ccc(C(F)(F)F)cc5C4)C3)CC2)c1` [Example 39, N,N-dimethyl-3-(1-((3aS,5S,6aR)-3a-(6-(trifluoromethyl)-3,4-dihydro-2H-benzo[e][1,3]oxazine-3-carbonyl)hexahydro-2H-cyclopenta[b]furan-5-yl)piperidin-4-yl)benzamide], the figure is less than 50 nM.
The same measure, in the same setting: the result for `COCCN([C@@H]1C[C@H]2OCC[C@@]2(C(=O)N2CCc3ncc(C(F)(F)F)cc3C2)C1)[C@H]1CCOC[C@H]1OC` [Example 41, ((3aS,5S,6aR)-5-((2-methoxyethyl)((3S,4S)-3-methoxytetrahydro-2H-pyran-4-yl)amino)hexahydro-2H-cyclopenta[b]furan-3a-yl)(3-(trifluoromethyl)-7,8-dihydro-1,6-naphthyridin-6(5H)-yl)methanone] reads more than 200 nM; that for `COCCOCCOCCOCCCN([C@@H]1C[C@H]2OCC[C@@]2(C(=O)N2CCc3ncc(C(F)(F)F)cc3C2)C1)[C@H]1CCOC[C@H]1OC` [Example 42, ((3aS,5S,6aR)-5-(((3S,4S)-3-methoxytetrahydro-2H-pyran-4-yl)(2,5,8,11-tetraoxatetradecan-14-yl)amino)hexahydro-2H-cyclopenta[b]furan-3a-yl)(3-(trifluoromethyl)-7,8-dihydro-1,6-naphthyridin-6(5H)-yl)methanone], more than 200 nM.
In turn, `CO[C@@H]1COCC[C@@H]1N[C@@H]1C[C@H]2OCC[C@@]2(C(=O)N2CCc3ncc(C(F)(F)F)cc3C2)C1` [maleate salt, ((3aS,5S,6aR)-5-(((3S,4S)-3-methoxytetrahydro-2H-pyran-4-yl)amino)hexahydro-2H-cyclopenta[b]furan-3a-yl)(3-(trifluoromethyl)-7,8-dihydro-1,6-naphthyridin-6(5H)-yl)methanone] returned a hygroscopic weight increase in series [1] (up to 70% RH) of 18.3%. Besides, in series [1], the “total hygroscopic weight increase (uptake)” value was 79.9%.
The molecule `CO[C@@H]1COCC[C@@H]1N[C@@H]1C[C@H]2OCC[C@@]2(C(=O)N2CCc3ncc(C(F)(F)F)cc3C2)C1` [phosphate salt, ((3aS,5S,6aR)-5-(((3S,4S)-3-methoxytetrahydro-2H-pyran-4-yl)amino)hexahydro-2H-cyclopenta[b]furan-3a-yl)(3-(trifluoromethyl)-7,8-dihydro-1,6-naphthyridin-6(5H)-yl)methanone] showed a hygroscopic weight increase in series [1] (up to 60% RH) of 3.3%. The “total hygroscopic weight increase (uptake)” value in series [1] was 69.4%.
Take `CO[C@@H]1COCC[C@@H]1N[C@@H]1C[C@H]2OCC[C@@]2(C(=O)N2CCc3ncc(C(F)(F)F)cc3C2)C1` [sulfate salt, ((3aS,5S,6aR)-5-(((3S,4S)-3-methoxytetrahydro-2H-pyran-4-yl)amino)hexahydro-2H-cyclopenta[b]furan-3a-yl)(3-(trifluoromethyl)-7,8-dihydro-1,6-naphthyridin-6(5H)-yl)methanone]: the hygroscopic weight increase in series [1] (up to 60% RH) is 1.6%. Moreover, in series [1], the “total hygroscopic weight increase (uptake)” value was 26.5%.
